From patent publication US20230303577A1, “TEMOZOLOMIDE ANALOGS AND METHODS OF USE” (St. John's Cancer Institute, priority 2020, published 2023)
Like-named read-outs stand apart in the source and are kept apart here.

Tests used:
[1] = Aqueous chemical stability (HPLC-MS); assay type: physicochemical
Procedure: Detection of products of non-enzymatic cleavage (AIC-TMZ, AIC-TP3, AIC-TP5, and AIC-TP9) was performed (Table 4; FIGS. 5A-5D).

GBM8 = assay: AlamarBlue cell viability, GBM8 patient-derived cell line; assay type: cell-based; conditions: 72 h, read-out: IC50, 72 h
Procedure: (§1) The effect of selected compounds on glioma cells viability was determined. The cells were plated at 2000 cells/well in 96 well plates. The day after, cells were treated with various concentrations of temozolomide or VMY-TP analogs.

U87MG Parent (Sensitive) = assay: AlamarBlue cell viability, U87MG parent (TMZ sensitive); assay type: cell-based; conditions: Homo sapiens, U-87 MG; 72 hours
Procedure: (§2) Cells were seeded in 96-well plates. The day after, cells were treated with various concentrations of temozolomide or TP3. Cell viability was measured by AlamarBlue™ cell viability reagent after 72 hours, considering the control level of cells to be 100%.

[2] = Metabolic stability in mouse liver microsomes; assay type: in vitro ADME; conditions: for microsomal CLint: mouse, liver microsomes
Procedure: Metabolic stability of the compounds was also determined in mouse liver microsomes at five time points over 60 minutes, using HPLC-MS. Liver microsomes, as vesicles of the hepatocyte endoplasmic reticulum, contain membrane phase I enzymes namely CYPs, flavine-containing monooxygenases (FMO), esterases, amidases, and epoxide hydrolases, and also the phase II enzymes such as UGTs. For the catalytic activity of both phase I and II enzymes, addition of exogenous cofactors such as NADPH for CYPs and FMO, and UDPGA/alamethicin for UGTs is necessary.

T98G cells = assay: Cell Titer Glo viability of T98G cells with or without O6-BG pretreatment; assay type: cell-based; conditions: Homo sapiens
Procedure: T98G cells, which express MGMT, were treated with TMZ or test compounds with or without 3, 6, or 24 hours of pretreatment with 100 μM of O^6-benzylguanine (O^6-BG; a pseudo-substrate of MGMT that quenches the cellular store of enzyme). T98G cell lysates were probed with anti-MGMT antibody and then with anti-a tubulin (FIG. 4). In a separate experiment, TMZ or test compounds were added to T98G cells with or without 5-6 hours of pretreatment with 100 μM O^6-BG. Cell viability was measured using the Cell Titer Glo assay after 3 days of incubation and IC50 values were determined (Table 3).

U251 Parent (Sensitive) = assay: AlamarBlue cell viability, U251 parent (TMZ sensitive); assay type: cell-based; conditions: Homo sapiens, U-251; 72 hours
Procedure: as §2

[3] = Pre-formulation testing: solubility, pH and stability in vehicles; assay type: physicochemical
Procedure: Two formulations for TP3 and TMZ were prepared (Tables 10 and 11). Pre-formulation testing was in volumes of 100 μl-250 μl, and should be confirmed with larger volumes. Mice were dosed at 20 mg/kg of TMZ and TP3 using formulation 2 orally and brain and plasma samples were collected at 0, 0.5, 1, 3, 6 and 12 h timepoints and the concentration was measured using LC-MS and calculate PK parameters using standard equation. The stability profile (FIGS. 9A and 9B) and release kinetics profiles (FIGS. 10A and 10B) were compared. Single dose oral brain to plasma pharmacokinetic parameters were determined with Formulation 2 (Table 12).

[4] = BBB permeability, cassette intravenous dosing; assay type: in vivo, male CD-1 mice; conditions: cassette IV 5 mg/kg; for % Brain / % Plasma: 5 min; for concentration at 5 min / Kp at 5 min: male, CD-1, mouse; for concentration at 5 min: 10% DMSO in PBS; for Kp at 5 min: brain/plasma
Procedure: BBB permeability of the compounds was tested in male CD-1@IGS mice using cassette intravenous dosing (Table 7 and FIGS. 6A and 6B). There were three animals in each group, given a dose of 5 mg/kg formulated in 10% DMSO in PBS (v/v) for 5 minutes. The endpoint was quantifying the parent compound using LC-MS/MS. Plasma samples (50 μl) were immediately mixed with 25 μl of H3PO4 (8.5%). Then 225 μl of internal standard (IS; 400 ng/ml meldonium in methanol) was added. After mixing by pipetting and centrifuging for 4 min at 6000 rpm, 2 μl of each supernatant was injected into LC-MS/MS system. Brain samples (100 mg±1 mg) were immediately mixed with 100 μl H3PO4 (25%) and zirconium oxide beads (115 mg±5 mg). Then 400 μl of IS solution was added and samples were disperse using a bullet blender homogenizer for 30 seconds at speed 8. The samples were centrifuged for 4 min at 14,000 rpm and 2 μl of each supernatant was injected into LC-MS/MS system.

P-gp = assay: Bidirectional Caco-2 permeability / P-gp efflux assay; assay type: in vitro ADME; conditions: human; for Papp A→B: read-out: Papp (AB) p-gp Inhibitor (−); for Papp B→A: read-out: Papp (BA) p-gp Inhibitor (−)
Procedure: Permeability of the compounds was evaluated in the bidirectional Caco-2 assay including identification of P-glycoprotein substrate (Pgp-mediated transport). Verapamil was used as a p-gp inhibitor. The apparent permeability (Papp) was calculated using the following equation:
Papp=VA/Area×Time×[drug]acc/[drug]initial,d
Permeability of the compounds was evaluated in the bidirectional Caco-2 assay as described in Example 11 (Table 15).

T98G = assay: cells; conditions: Homo sapiens, 72 h
Procedure: as §1
(§3) Activity of TP-RGD was assessed in glioma cell cultures, as described in Example 11.

U251 = assay: cells; conditions: Homo sapiens, U-251, 72 h
Procedure: as §1, §3

U87 = assay: cells; conditions: Homo sapiens, U-87 MG, 72 h
Procedure: as §1, §3

[5] = read-out: Intrinsic clearance (Clint)
[6] = 2.0 mg/mL in 10% DMA + 15% Solutol HS15 + 10% PEG 400 + 10% PG + 55% of 15% (w/v) Captisol
[7] = Caco-2, without verapamil, read-out: Efflux Ratio BA/AB p-gp Inhibitor (−)
[8] = 2.0 mg/mL in 10% DMA + 10% Tween 80 + 15% PEG 400 + 15% PG + 50% of 15% (w/v) Captisol
[9] = 2.0 mg/mL in 10% DMA + 10% Tween 80 + 15% PEG 400 + 15% PG + 50% of 25% (w/v) Captisol
[10] = 4.0 mg/mL in 5% DMA + 10% Tween 80 + 10% PEG 400 + 10% PG + 65% of 50% (w/v) Captisol
[11] = 4.0 mg/mL in 10% DMA + 10% Tween 80 + 10% PEG 400 + 10% PG + 60% of 50% (w/v) Captisol

Structure (SMILES): Cn1nnc2c(C(N)=O)ncn2c1=O [TMZ, temozolomide]
- half-life at 1 μM ([1]; 0.1 M phosphate buffer pH 8.0): 31 min
- half-life at 1 μM ([1]; PBS pH 7.4): 59 min
- IC50 (GBM8; GBM8, MGMT −, Table 2): 45 µM
- IC50 (U87MG Parent (Sensitive)): 310 µM
- Clearance Classification (Low <8.6; High >48) [2]: Moderate
- microsomal CLint [2, 5]: 15 µL/min/mg
- % remaining (1 h) With co-factors [2]: 65%
- % remaining (1 h) Without co-factors [2]: 72%
- IC50 (T98G cells; 5-6 h pretreatment with 100 μM O6-BG, 3 days, read-out: IC50 With O^6-BG pretreatment): > 1000 µM
- IC50 (T98G cells; 3 days, read-out: IC50 Without O^6-BG pretreatment): > 1000 µM
- IC50 (U251 Parent (Sensitive)): 70 µM
- Remarks (solubility) [3, 6]: Soluble
- Stability (0-4 h) ([3]; Formulation 2, 2 mg/ml): Stable
- Stability (0-4 h) ([3]; Formulation 3, 2 mg/ml): Stable
- % Brain [4]: 7%
- % Plasma [4]: 93%
- concentration at 5 min ([4]; brain, read-out: Brain Conc.): 1290 ng/g
- Kp at 5 min [4]: 0.23
- concentration at 5 min ([4]; plasma, read-out: Plasma Conc): 5540 ng/mL
- efflux ratio (P-gp; Caco-2, Caco-2 permeability, P-gp efflux ratio, Table 15, read-out: Efflux Ratio): 1.04
- efflux ratio (P-gp; [7]): 1
- Papp A→B (P-gp; Caco-2, without verapamil): 20.2 ×10⁻⁶ cm/s
- Papp B→A (P-gp; Caco-2, without verapamil): 21 ×10⁻⁶ cm/s
- IC50 (T98G; read-out: IC50, 72 h, T98G, MGMT +++, Table 14): > 600 µM
- IC50 (T98G; read-out: IC50, 72 h, T98G, MGMT +, Table 2): 1140 µM
- IC50 (U251; read-out: IC50, 72 h, U251, MGMT −, Table 2): 898 µM
- IC50 (U251; read-out: IC50, 72 h, U251, MGMT −, Table 14): 383 µM
- IC50 (U87; read-out: IC50, 72 h, U87, MGMT −, Table 2): 208 µM
- IC50 (U87; read-out: IC50, 72 h, U87MG, MGMT −, Table 14): 440 µM

Structure (SMILES): CCCCCCNC(=O)c1ncn2c(=O)n(C)nnc12 [TP3, N-hexyl-3-methyl-4-oxo-3,4-dihydroimidazo[5,1-d][1,2,3,5]tetrazine-8-carboxamide]
- half-life at 1 μM ([1]; 0.1 M phosphate buffer pH 7.0): 119 min
- half-life at 1 μM ([1]; 0.1 M phosphate buffer pH 8.0): 39 min
- half-life at 1 μM ([1]; PBS pH 7.4): 62 min
- IC50 (GBM8): 2 µM
- IC50 (U87MG Parent (Sensitive)): 250 µM
- microsomal CLint ([2]; read-out: Clearance Classification (Low <8.6; High >48)): > 48 µL/min/mg
- microsomal CLint [2, 5]: 358 µL/min/mg
- % remaining (1 h) With co-factors [2]: 0%
- % remaining (1 h) Without co-factors [2]: 80%
- IC50 (T98G cells; read-out: IC50 With O^6-BG pretreatment): 675 µM
- IC50 (T98G cells; read-out: IC50 Without O^6-BG pretreatment): 1050 µM
- IC50 (U251 Parent (Sensitive)): 71 µM
- Remarks (solubility) ([3]; 2.0 mg/mL in 5% DMA + 10% Tween 80 + 10% PEG 400 + 10% PG + 65% of 15% (w/v) Captisol): Not Soluble
- Remarks (solubility) ([3]; 2.0 mg/mL in 10% DMA + 10% Tween 80 + 10% PEG 400 + 10% PG + 60% Normal saline): Not Soluble
- pH ([3]; 2.0 mg/mL in 10% DMA + 10% Tween 80 + 10% PEG 400 + 10% PG + 60% of 15% (w/v) Captisol (100 μL)): ~6
- Remarks (solubility) ([3]; 2.0 mg/mL in 10% DMA + 10% Tween 80 + 10% PEG 400 + 10% PG + 60% of 15% (w/v) Captisol (100 μL, from 20 mg/mL DMA stock)): Soluble
- Remarks (solubility) ([3]; 2.0 mg/mL in 10% DMA + 10% Tween 80 + 10% PEG 400 + 10% PG + 60% of 15% (w/v) Captisol (250 μL)): Not Soluble
- Remarks (solubility) ([3]; 2.0 mg/mL in 10% DMA + 10% Tween 80 + 10% PEG 400 + 10% PG + 60% of 15% (w/v) HPβCD): Not Soluble
- Remarks (solubility) [3, 8]: Soluble
- pH [3, 8]: ~6
- Remarks (solubility) [3, 9]: Soluble
- pH [3, 9]: ~6
- Remarks (solubility) [3, 6]: Soluble
- Remarks (solubility) [3, 10]: Soluble
- pH [3, 10]: ~6
- Remarks (solubility) ([3]; 4.0 mg/mL in 5% DMA + 10% Tween 80 + 10% PEG 400 + 10% PG + 65% of 50% (w/v) HPβCD): Not Soluble
- Remarks (solubility) ([3]; 4.0 mg/mL in 10% DMA + 5% Tween 80 + 15% PEG 400 + 15% PG + 50% of 25% (w/v) Captisol): Not Soluble
- Remarks (solubility) ([3]; 4.0 mg/mL in 10% DMA + 5% Tween 80 + 85% Normal saline): Not Soluble
- Remarks (solubility) ([3]; 4.0 mg/mL in 10% DMA + 10% Tween 80 + 10% PEG 400 + 10% PG + 60% Normal saline): Not Soluble
- Remarks (solubility) [3, 11]: Soluble
- pH [3, 11]: ~6
- Remarks (solubility) ([3]; 4.00 mg/mL in 25% of DMSO + 75% Normal Saline): Not Soluble
- Stability (0-4 h) ([3]; Formulation 2, 2 mg/ml): Stable
- pH ([3]; Formulation 2, 2 mg/ml): 4.81
- Stability (0-4 h) ([3]; Formulation 3, 2 mg/ml): Stable
- pH ([3]; Formulation 3, 2 mg/ml): 5.66
- % Brain [4]: 20%
- % Plasma [4]: 80%
- concentration at 5 min ([4]; brain, read-out: Brain Conc.): 2080 ng/g
- Kp at 5 min [4]: 0.71
- concentration at 5 min ([4]; plasma, read-out: Plasma Conc): 2920 ng/mL
- efflux ratio (P-gp; [7]): 0.6
- Papp A→B (P-gp; Caco-2, without verapamil): 30.7 ×10⁻⁶ cm/s
- Papp B→A (P-gp; Caco-2, without verapamil): 17 ×10⁻⁶ cm/s
- IC50 (T98G; read-out: IC50, 72 h): 1260 µM
- IC50 (U251; read-out: IC50, 72 h): 397 µM
- IC50 (U87; read-out: IC50, 72 h): 399 µM
